Activity calls are given as the source filed them. The rule behind the calls is not given here.
Experiments:
Conditions in all cases: time 21.0 day
Leishmania infantum [1] = test: Antileishmanial activity against Leishmania infantum infected in BALB/c mouse model of visceral leishmaniasis assessed as footpad lesion development at 50 mg/kg/day, IM administered for 21 days and measured after 1 week by Giemsa staining based analysis (reference value: 30.43 +/- 0.60); type: functional
Leishmania infantum [2] = test: Antileishmanial activity against Leishmania infantum infected in BALB/c mouse model of cutaneous leishmaniasis assessed as footpad lesion development at 50 mg/kg/day, ID administered for 21 days and measured after 8 weeks by Giemsa staining based analysis (reference value: 3.13 +/- 0.03); type: functional
Leishmania infantum [3] = test: Antileishmanial activity against Leishmania infantum infected in BALB/c mouse model of visceral leishmaniasis assessed as footpad lesion development at 50 mg/kg/day, IM administered for 21 days and measured after 7 weeks by Giemsa staining based analysis (reference value: 24.85 +/- 0.88); type: functional
Leishmania infantum [4] = test: Antileishmanial activity against Leishmania infantum infected in BALB/c mouse model of visceral leishmaniasis assessed as footpad lesion development at 50 mg/kg/day, IM administered for 21 days and measured after 2 weeks by Giemsa staining based analysis (reference value: 29.73 +/- 0.63); type: functional
Leishmania infantum [5] = test: Antileishmanial activity against Leishmania infantum infected in BALB/c mouse model of cutaneous leishmaniasis assessed as footpad lesion development at 50 mg/kg/day, ID administered for 21 days and measured after 20 weeks by Giemsa staining based analysis (reference value: 4.54 +/- 0.04); type: functional
Leishmania infantum [6] = test: Antileishmanial activity against Leishmania infantum infected in BALB/c mouse model of cutaneous leishmaniasis assessed as footpad lesion development at 50 mg/kg/day, ID administered for 21 days and measured after 26 weeks by Giemsa staining based analysis (reference value: 4.91 +/- 0.01); type: functional
Leishmania infantum [7] = test: Antileishmanial activity against Leishmania infantum infected in BALB/c mouse model of cutaneous leishmaniasis assessed as footpad lesion development at 50 mg/kg/day, ID administered for 21 days and measured after 14 weeks by Giemsa staining based analysis (reference value: 3.88 +/- 0.03); type: functional
Leishmania infantum [8] = test: Antileishmanial activity against Leishmania infantum infected in BALB/c mouse model of cutaneous leishmaniasis assessed as parasite growth in spleen at 50 mg/kg/day, ID administered for 21 days; type: functional, organism-based
Leishmania infantum [9] = test: Antileishmanial activity against Leishmania infantum infected in BALB/c mouse model of cutaneous leishmaniasis assessed as footpad lesion development at 50 mg/kg/day, ID administered for 21 days and measured after 16 weeks by Giemsa staining based analysis (reference value: 4.20 +/- 0.03); type: functional
Leishmania infantum [10] = test: Antileishmanial activity against Leishmania infantum infected in BALB/c mouse model of visceral leishmaniasis assessed as footpad lesion development at 50 mg/kg/day, IM administered for 21 days and measured after 10 weeks by Giemsa staining based analysis (reference value: 21.58 +/- 0.74); type: functional
Leishmania infantum [11] = test: Antileishmanial activity against Leishmania infantum infected in BALB/c mouse model of visceral leishmaniasis assessed as footpad lesion development at 50 mg/kg/day, IM administered for 21 days and measured after 8 weeks by Giemsa staining based analysis (reference value: 23.84 +/- 0.93); type: functional
Leishmania infantum [12] = test: Antileishmanial activity against Leishmania infantum infected in BALB/c mouse model of cutaneous leishmaniasis assessed as footpad lesion development at 50 mg/kg/day, ID administered for 21 days and measured after 24 weeks by Giemsa staining based analysis (reference value: 4.90 +/- 0.02); type: functional
Leishmania infantum [13] = test: Antileishmanial activity against Leishmania infantum infected in BALB/c mouse model of visceral leishmaniasis assessed as footpad lesion development at 50 mg/kg/day, IM administered for 21 days and measured after 6 weeks by Giemsa staining based analysis (reference value: 25.81 +/- 0.84); type: functional
Leishmania infantum [14] = test: Antileishmanial activity against Leishmania infantum infected in BALB/c mouse model of visceral leishmaniasis assessed as footpad lesion development at 50 mg/kg/day, IM administered for 21 days and measured after 4 weeks by Giemsa staining based analysis (reference value: 28.01 +/- 0.65); type: functional
Leishmania infantum [15] = test: Antileishmanial activity against Leishmania infantum infected in BALB/c mouse model of cutaneous leishmaniasis assessed as parasite growth in foodpad at 50 mg/kg/day, ID administered for 21 days; type: functional, organism-based
Leishmania infantum [16] = test: Antileishmanial activity against Leishmania infantum infected in BALB/c mouse model of cutaneous leishmaniasis assessed as footpad lesion development at 50 mg/kg/day, ID administered for 21 days and measured after 10 weeks by Giemsa staining based analysis (reference value: 3.40 +/- 0.03); type: functional
Leishmania infantum [17] = test: Antileishmanial activity against Leishmania infantum infected in BALB/c mouse model of visceral leishmaniasis assessed as footpad lesion development at 50 mg/kg/day, IM administered for 21 days and measured after 11 weeks by Giemsa staining based analysis (reference value: 20.71 +/- 0.48); type: functional
Leishmania infantum [18] = test: Antileishmanial activity against Leishmania infantum infected in BALB/c mouse model of cutaneous leishmaniasis assessed as footpad lesion development at 50 mg/kg/day, ID administered for 21 days and measured after 4 weeks by Giemsa staining based analysis (reference value: 1.90 +/- 0.03); type: functional
Leishmania infantum [19] = test: Antileishmanial activity against Leishmania infantum infected in BALB/c mouse model of visceral leishmaniasis assessed as parasite growth in liver at 50 mg/kg/day, IM administered for 21 days; type: functional, organism-based
Leishmania infantum [20] = test: Antileishmanial activity against Leishmania infantum infected in BALB/c mouse model of cutaneous leishmaniasis assessed as footpad lesion development at 50 mg/kg/day, ID administered for 21 days and measured after 18 weeks by Giemsa staining based analysis (reference value: 4.42 +/- 0.03); type: functional
Leishmania infantum [21] = test: Antileishmanial activity against Leishmania infantum infected in BALB/c mouse model of cutaneous leishmaniasis assessed as footpad lesion development at 50 mg/kg/day, ID administered for 21 days and measured after 12 weeks by Giemsa staining based analysis (reference value: 3.61 +/- 0.03); type: functional
Leishmania infantum [22] = test: Antileishmanial activity against Leishmania infantum infected in BALB/c mouse model of cutaneous leishmaniasis assessed as footpad lesion development at 50 mg/kg/day, ID administered for 21 days and measured after 28 weeks by Giemsa staining based analysis (reference value: 4.92 +/- 0.01); type: functional
Leishmania infantum [23] = test: Antileishmanial activity against Leishmania infantum infected in BALB/c mouse model of visceral leishmaniasis assessed as footpad lesion development at 50 mg/kg/day, IM administered for 21 days and measured after 9 weeks by Giemsa staining based analysis (reference value: 22.75 +/- 0.71); type: functional
Leishmania infantum [24] = test: Antileishmanial activity against Leishmania infantum infected in BALB/c mouse model of visceral leishmaniasis assessed as parasite growth in spleen at 50 mg/kg/day, IM administered for 21 days; type: functional, organism-based
Leishmania infantum [25] = test: Antileishmanial activity against Leishmania infantum infected in BALB/c mouse model of cutaneous leishmaniasis assessed as parasite growth in liver at 50 mg/kg/day, ID administered for 21 days; type: functional, organism-based
Leishmania infantum [26] = test: Antileishmanial activity against Leishmania infantum infected in BALB/c mouse model of cutaneous leishmaniasis assessed as footpad lesion development at 50 mg/kg/day, ID administered for 21 days and measured after 6 weeks by Giemsa staining based analysis (reference value: 2.40 +/- 0.03); type: functional
Leishmania infantum [27] = test: Antileishmanial activity against Leishmania infantum infected in BALB/c mouse model of cutaneous leishmaniasis assessed as footpad lesion development at 50 mg/kg/day, ID administered for 21 days and measured after 22 weeks by Giemsa staining based analysis (reference value: 4.71 +/- 0.04); type: functional
Leishmania infantum [28] = test: Antileishmanial activity against Leishmania infantum infected in BALB/c mouse model of visceral leishmaniasis assessed as footpad lesion development at 50 mg/kg/day, IM administered for 21 days and measured after 3 weeks by Giemsa staining based analysis (reference value: 28.94 +/- 0.59); type: functional
Leishmania infantum [29] = test: Antileishmanial activity against Leishmania infantum infected in BALB/c mouse model of visceral leishmaniasis assessed as footpad lesion development at 50 mg/kg/day, IM administered for 21 days and measured after 5 weeks by Giemsa staining based analysis (reference value: 27.04 +/- 0.65); type: functional
Leishmania infantum [30] = test: Antileishmanial activity against Leishmania infantum infected in BALB/c mouse model of cutaneous leishmaniasis assessed as footpad lesion development at 50 mg/kg/day, ID administered for 21 days and measured after 32 weeks by Giemsa staining based analysis (reference value: 4.91 +/- 0.01); type: functional
Leishmania infantum [31] = test: Antileishmanial activity against Leishmania infantum infected in BALB/c mouse model of cutaneous leishmaniasis assessed as footpad lesion development at 50 mg/kg/day, ID administered for 21 days and measured after 30 weeks by Giemsa staining based analysis (reference value: 4.92 +/- 0.01); type: functional
Leishmania infantum [32] = test: Antileishmanial activity against Leishmania infantum infected in BALB/c mouse model of cutaneous leishmaniasis assessed as footpad lesion development at 50 mg/kg/day, ID administered for 21 days and measured after 2 weeks by Giemsa staining based analysis (reference value: 1.61 +/- 0.03); type: functional

Meglumine antimoniate
Activity (Leishmania infantum [1]): 30.8 | Activity (Leishmania infantum [2]): 3.09 | Activity (Leishmania infantum [3]): 26.7 | Activity (Leishmania infantum [4]): 29.4 | Activity (Leishmania infantum [5]): 4.53 | Activity (Leishmania infantum [6]): 4.69 | Activity (Leishmania infantum [7]): 3.84 | Activity (Leishmania infantum [8]): Active | Activity (Leishmania infantum [9]): 4.2 | Activity (Leishmania infantum [10]): 29.3 | Activity (Leishmania infantum [11]): 27.7 | Activity (Leishmania infantum [12]): 4.9 | Activity (Leishmania infantum [13]): 25.3 | Activity (Leishmania infantum [14]): 27.4 | Activity (Leishmania infantum [15]): Active | Activity (Leishmania infantum [16]): 3.4 | Activity (Leishmania infantum [17]): 30.3 | Activity (Leishmania infantum [18]): 1.87 | Activity (Leishmania infantum [19]): Active | Activity (Leishmania infantum [20]): 4.42 | Activity (Leishmania infantum [21]): 3.61 | Activity (Leishmania infantum [22]): 3.49 | Activity (Leishmania infantum [23]): 28.7 | Activity (Leishmania infantum [24]): Active | Activity (Leishmania infantum [25]): Active | Activity (Leishmania infantum [26]): 2.39 | Activity (Leishmania infantum [27]): 4.69 | Activity (Leishmania infantum [28]): 28.5 | Activity (Leishmania infantum [29]): 26.3 | Activity (Leishmania infantum [30]): 1.7 | Activity (Leishmania infantum [31]): 2.16 | Activity (Leishmania infantum [32]): 1.56

Source: ChEMBL document CHEMBL5352486, “Design, synthesis, in vitro - In vivo biological evaluation of novel thiazolopyrimidine compounds as antileishmanial agent with PTR1 inhibition” (Eur J Med Chem, 2023)
